Assay in all cases: inhibition of tumour cell growth, NCI panel, 48 h
Assay [1] concerns HOP-92 NSCLC.
Assay [2] deals with 786-0 renal.
Assay [3] deals with CCRF-CEM leukemia.
Assay [4] has as its system HOP-62 NSCLC.
For assay [5], the system named is SK-MEL-5 melanoma.
Assay [6] has as its system NCI-H522 lung.
Assay [7] deals with SK-OV-3 ovarian.
For assay [8], the system named is SK-MEL-28 melanoma.
Assay [9] has as its system COLO 205 colon.
Assay [10] concerns CAKI-1 renal.

The text below walks through data of PubChem BioAssay (NCI).

Several values for one entry are separate records, joined by “and”; a condition that tells them apart may be missing. Identical values can stand only once.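 Five concentrations, 48 hours, 96-well plates. GI50 marks 50% less growth. TGI denotes the concentration required for complete inhibition of growth.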

Take `Oc1cn(-c2ccc(Cl)cc2)nc1-c1n[nH]c(=S)n1-c1ccc(F)cc1`: the GI50 was 32.2 µM in assay [1]; 28.1 µM in assay [2]; 7.29 µM in [3]; 22.7 µM in [4]; 14.3 µM in assay [5]; 18 µM in assay [6]. In addition, the GI50 in assay [7] was > 100 µM; in assay [8], 20.4 µM; in [9], 61.4 µM; in assay [10] it was 40.5 µM. The TGI in [1] was > 100 µM; in assay [2], > 100 µM; in assay [3] it was > 100 µM; in assay [4], 54.6 µM; in assay [5], 35.9 µM; in assay [6] it was 64.8 µM. Also, the TGI in assay [7], in assay [8], in assay [9] and in [10] was > 100 µM each time.

In the case of `CC(C)(C)OC(=O)N[C@H]1CC(=O)c2ccccc2N(CC(=O)O)C1=O`, the TGI in assay [1], in assay [2], in assay [3], in [4], in assay [5] and in [6] was > 100 µM throughout. Further, the TGI in [7], in assay [8], in assay [9] and in assay [10] was > 100 µM in each case.

Consider `O=C(Nc1ccc(-n2cc(-c3ccncc3)c(-c3ccc(Cl)c(O)c3)n2)cc1)c1cc(C(F)(F)F)cc(C(F)(F)F)c1`, for which the GI50 in assay [1] was 3.89 µM; in assay [2], 3.78 µM; in assay [3], 4.87 µM; in assay [4] it was 2.11 µM; in assay [5] it was 1.55 µM; in [6] it was 14 µM. The GI50 in assay [7] is 2.01 µM; in assay [8], 4.88 µM; in assay [9] it was 3.17 µM; in assay [10] it was 7.48 µM. The TGI in assay [1] is 26.2 µM; in [2] it was 13.6 µM; in assay [3], > 100 µM; in assay [4] it was 5.58 µM; in [5], 3.63 µM; in assay [6] it was 57.7 µM. For the same molecule, the TGI in [7] is 6.98 µM; in [8] it was 20 µM; in [9] it was 14 µM; in [10] it was 42.9 µM.

Consider `Cc1ccc(C(=O)Nc2ccc(Oc3cc4cnn(C)c4cc3-c3cn[nH]c3)c(F)c2)c(=O)n1-c1ccc(F)cc1`, for which the GI50 in assay [1] was 2.34 µM; in [2] it was > 100 µM; in assay [3] it was > 100 µM; in [4] it was > 37.9 µM; in assay [5] it was 5.59 µM; in [6], 32 µM. The GI50 in assay [7] was > 100 µM; in assay [8], 3.54 µM; in assay [9] it was 5.36 µM; in [10], 3.25 µM. For the same molecule, the TGI in [1], in assay [2], in assay [3], in assay [4], in assay [5] and in assay [6] was > 100 µM in each case. Also, the TGI in assay [7], in [8], in assay [9] and in [10] was > 100 µM each time.

With `O=[N+]([O-])c1cccnc1S(=O)(=O)c1ccccc1`, the TGI in assay [1] is 3.64 µM; in [2] it was 7.09 µM; in assay [3] it was > 100 µM; in assay [4] it was 32.8 µM; in assay [5], 32.6 µM; in [6], 2.82 µM. Moreover, the TGI in assay [7] worked out at 44.7 µM; in assay [8] it was 34.6 µM; in [9], 11 µM; in [10] it was 6.98 µM.

In the case of `COc1ccc([C@@]23Oc4cc(OC)cc(OC)c4[C@]2(O)[C@H](O)[C@H](C(=O)N(C)C)[C@H]3c2ccccc2)cc1`, the GI50 in [1] is 0.0304 µM; in assay [2], 0.0287 µM; in assay [3], 0.0185 µM; in assay [4] it was 0.0152 µM; in [5], 0.0227 µM; in assay [6] it was 0.0179 µM. Further, the values for the GI50 in assay [7], in assay [8] and in assay [10] were 0.0157 µM, 0.0134 µM and 0.0218 µM, respectively. In addition, the TGI was 0.0741 µM and 0.4 µM in assay [1]; 0.159 µM and 0.0333 µM and 0.215 µM in assay [2]; 0.0144 µM and 0.139 µM in [5]; 0.0616 µM and 0.0292 µM and 0.0492 µM in assay [8]; 0.0197 µM in [9]; 0.225 µM and 0.692 µM and 0.262 µM in assay [10].

Consider `COC(=O)C1CCC(C)CC1=O` (stereo not drawn), for which the TGI in assay [1], in [2], in assay [3], in assay [4], in assay [5] and in assay [6] was > 100 µM throughout. The TGI in assay [7], in assay [8], in [9] and in assay [10] was > 100 µM in each case.

`CC[n+]1c(-c2ccccc2)c2cc(N)ccc2c2ccc(N)cc21`: the GI50 in assay [1] is 1.24 µM; in assay [2], 1.37 µM and 1.16 µM and 3.57 µM; in assay [3] it was 2.15 µM and 1.2 µM and 4.94 µM; in assay [4], 0.863 µM and 7.4 µM and 2.38 µM; in assay [5], 0.864 µM; in assay [7], 2.19 µM. Moreover, the figures for the GI50 in [8], in assay [9] and in assay [10] were 0.607 µM, 0.612 µM and 66.2 µM, respectively. Also, the TGI was 10.6 µM and 14.6 µM in [1]; 13.6 µM and 12.7 µM and 26.1 µM in assay [2]; 77 µM and 33 µM and 48.3 µM in assay [3]; 2.14 µM and 2.6 µM in assay [5]; 2.54 µM and 8.58 µM and 23.2 µM in assay [6]; 23.5 µM and 25.6 µM in [7]. In addition, the TGI was 2.12 µM and 8.02 µM in [8]; 2.24 µM and 7.14 µM in assay [9]; > 100 µM in assay [10].

In the case of `CC(C)(C)C1=NO[C@H]2[C@@H](NC(=O)c3ccccc3)CC[C@@H]12`, the TGI in assay [1], in [2], in assay [3], in [4], in assay [5] and in assay [6] was > 100 µM throughout. Further, the TGI in assay [7], in assay [8], in assay [9] and in assay [10] was > 100 µM each time.

As for `O=C1C2C(C(=O)N1Cc1ccccc1)N(Cc1ccccc1)C(=O)N2Cc1ccccc1` (stereo not drawn), the TGI in [1], in [2], in assay [3], in [4], in assay [5] and in assay [6] was > 100 µM in each case. Further, the TGI in assay [7], in [8], in [9] and in assay [10] was > 100 µM each time.

As to `CNC(=O)OCc1nc(SSc2nc(COC(=O)NC)c(COC(=O)NC)n2C)n(C)c1COC(=O)NC`, the TGI in assay [1], in [2], in [3], in assay [4], in [5] and in assay [6] was > 100 µM each time. The TGI in assay [7], in assay [8], in assay [9] and in [10] was > 100 µM in each case.

On to `N=C(N)n1cc(/C=N/N=C(N)N)cn1`, for which the TGI in [1], in [2], in assay [3], in assay [4], in [5] and in assay [6] was > 100 µM in each case. In addition, the TGI in [7], in assay [8], in assay [9] and in [10] was > 100 µM throughout.

Turning to `C/C(=N\NC(=S)N1CCC1)c1ccccn1`, the GI50 was 0.0351 µM in [1]; 0.0555 µM in assay [2]; 0.00658 µM in [3]; 0.0223 µM in assay [4]; 0.00994 µM in assay [5]; 0.00976 µM in [6]. Besides, in assay [9], the GI50 is 0.00486 µM. Also, the TGI in [1] was 47.9 µM; in assay [2], > 52.4 µM; in assay [4] it was > 33.9 µM; in assay [5] it was 2.01 µM; in assay [6] it was > 45.9 µM; in assay [7], 5.7 µM. Moreover, the TGI is > 56 µM in [8], > 100 µM in assay [9] and 75.3 µM in [10].

As for `S=C(Sc1ccc(Cl)cc1)Sc1ccc(Cl)cc1`, the GI50 is 1.99 µM in [1]; 1.94 µM in assay [2]; 0.409 µM in assay [3]; 3.39 µM in [4]; 1.68 µM in assay [5]; 1.11 µM in [6]. Moreover, the GI50 is 6.05 µM in assay [7], 1.89 µM in assay [8], 2.29 µM in [9] and 2.96 µM in assay [10]. Moreover, the TGI in assay [1] worked out at 5.01 µM; in [2], 3.6 µM; in assay [3], 2.56 µM; in [4], 7.58 µM; in [5] it was 3.11 µM; in assay [6], 2.33 µM. Further, the TGI in [7] was 31.8 µM; in assay [8], 3.49 µM; in [9], 5.5 µM; in [10], 10.3 µM.

Turning to `OCCNc1nc2ccccc2c2[nH]c3ccccc3c12`, the GI50 in [1] is 0.943 µM; in assay [2], 0.407 µM; in assay [3], 0.654 µM; in assay [4] it was 0.583 µM; in assay [5], 0.979 µM; in [6], 0.36 µM. The GI50 was 0.329 µM in assay [7], 1.04 µM in assay [8], 0.329 µM in [9] and 0.529 µM in [10]. Further, the TGI in assay [1] amounted to 13.2 µM; in assay [2] it was 1.92 µM; in assay [3] it was 10.7 µM; in [4], 6.66 µM; in [5] it was 2.54 µM; in assay [6], 1.73 µM. Further, the TGI in assay [7] is 2.07 µM; in assay [8], 2.55 µM; in assay [9], 1.37 µM; in assay [10] it was 8.9 µM.

Take `COc1cc([C@@H]2c3cc4c(cc3[C@H](SC(=N)N)[C@H]3COC(=O)[C@H]23)OCO4)cc(OC)c1OC`: the GI50 was 37.1 µM in assay [1]; 0.435 µM in [2]; 0.299 µM in [3]; 0.419 µM in [4]; 0.201 µM in assay [5]; 0.125 µM in [6]. Further, the GI50 is 0.201 µM in [7], 14.4 µM in [8], 0.198 µM in assay [9] and 0.249 µM in [10]. The TGI was > 100 µM in [1]; > 100 µM in assay [2]; > 100 µM in assay [3]; > 100 µM in assay [4]; 0.649 µM in [5]; > 33 µM in assay [7]. In addition, the TGI in assay [8] is > 100 µM; in assay [9] it was 0.422 µM; in assay [10], 17.3 µM.

Regarding `OCc1ccc(-c2ccc(-c3ccc(CO)o3)o2)o1`, the GI50 in [1] is > 49.6 µM; in [2], 35.3 µM; in assay [3], > 100 µM; in [4], 27.1 µM; in [5], > 100 µM; in [6], > 100 µM. The GI50 in assay [7] is > 83.3 µM; in assay [8], > 100 µM; in assay [9], 18.6 µM; in assay [10], > 100 µM. In addition, the TGI was > 100 µM in assay [1]; > 100 µM in assay [2]; > 100 µM in assay [3]; > 78 µM in assay [4]; > 100 µM in assay [5]; > 100 µM in [6]. Besides, the TGI in [7] is > 100 µM; in assay [8], > 100 µM; in [9], 48.2 µM; in assay [10], > 100 µM.

For `O=C1Nc2ccc(-c3cccnc3)cc2/C1=C/c1cc(Br)c(O)c(Br)c1`, the GI50 in assay [1] is 8.32 µM; in assay [2], 7.18 µM; in assay [3], 5.43 µM; in assay [4], 8.43 µM; in assay [5] it was 3.95 µM; in assay [6], 4.38 µM. In addition, the GI50 in [7] was 8.11 µM; in assay [8] it was 4.89 µM; in assay [9], 11.8 µM; in assay [10] it was 4.83 µM. In addition, the TGI in assay [1] was > 25 µM; in assay [2], > 25 µM; in assay [3], > 25 µM; in assay [4], > 25 µM; in [5], 7.78 µM; in assay [6] it was 13.7 µM. In addition, the TGI in assay [7] is 24.9 µM; in [8], 14.6 µM; in assay [9], > 25 µM; in assay [10], > 23.7 µM.
